This note sets out measurements from patent publication US12084434B2 (Scorpion Therapeutics, Inc., priority 2021, dated 2024).

By IC50 is commonly meant the concentration that inhibits the measured activity by half. Usually pIC50 stands for −log10 of the IC50, conventionally taken in molar units.

SMILES strings stand for the structures. pIC50: −log10 of the molar value.

One assay deals with T47D pAKT (S473), PI3Kα H1047R mutation present. Kind of assay: HTRF pAKT-T47D.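 Note: assay medium was RPMI with 10% FBS and 0.2 units/ml bovine insulin, without phenol red.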 Particulars: Homo sapiens, T47D, 1 h, read-out: T47D pAKT IC50 (nM). A general note: Time-resolved FRET reads energy transfer from a long-lived donor to a nearby acceptor.
For the molecule `CC(=O)Nc1ncc(NC(=O)N[C@H](c2oc3ccc(F)cc3c2C)C(C)C)cn1` [Compound 159], the IC50 is < 1000 nM.

The same assay, now with this note: Homo sapiens, T47D, 1 h, read-out: T47D pAKT IC50 (nM), T47D.1 cells, pAKT (S473) HTRF, 1 hour.
`Cc1c([C@@H](NC(=O)Nc2cnc(N3CCNCC3)nc2)C(C)C)oc2ccc(F)cc12` [Compound 106, (S)-1-(1-(5-fluoro-3-methylbenzofuran-2-yl)-2-methylpropyl)-3-(2-(piperazin-1-yl)pyrimidin-5-yl)urea]: the half-inhibitory concentration (IC50) lay within 1000 to 5000 nM.
On the same count and under the same terms, under `Cc1c([C@@H](NC(=O)Nc2cnc(N3CCOCC3)nc2)C(C)C)oc2ccc(F)cc12` [Compound 107] stands < 1000 nM; under `Cc1c([C@@H](NC(=O)Nc2cnc(C(=O)N(C)C)s2)C(C)C)oc2ccc(F)cc12` [Compound 121, (S)-5-(3-(1-(5-fluoro-3-methylbenzofuran-2-yl)-2-methylpropyl)ureido)-N,N-dimethylthiazole-2-carboxamide], 1000 to 5000 nM.
For the molecule `Cc1c([C@@H](NC(=O)Nc2csc(C(N)=O)c2)C(C)C)oc2ccc(F)cc12` [Compound 123, (S)-4-(3-(1-(5-fluoro-3-methylbenzofuran-2-yl)-2-methylpropyl)ureido)thiophene-2-carboxamide], the IC50 fell in the range of 1000 to 5000 nM.
In the case of `Cc1c([C@@H](NC(=O)Nc2ccc3nc[nH]c(=O)c3c2)C(C)C)oc2ccc(F)cc12` [Compound 124, (S)-1-(1-(5-fluoro-3-methylbenzofuran-2-yl)-2-methylpropyl)-3-(4-oxo-3,4-dihydroquinazolin-6-yl)urea], the IC50 is 1000 to 5000 nM.
The same measure, in the same setting: under `Cc1c([C@@H](NC(=O)Nc2cccc(-c3nnnn3C)c2)C(C)C)oc2ccc(F)cc12` [Compound 125, (S)-1-(1-(5-fluoro-3-methylbenzofuran-2-yl)-2-methylpropyl)-3-(3-(1-methyl-1H-tetrazol-5-yl)phenyl)urea] stands 1000 to 5000 nM; under `Cc1c([C@@H](NC(=O)Nc2ccc(Cl)c(S(C)(=O)=O)c2)C(C)C)oc2ccc(F)cc12` [Compound 126, (S)-1-(4-chloro-3-(methylsulfonyl)phenyl)-3-(1-(5-fluoro-3-methylbenzofuran-2-yl)-2-methylpropyl)urea], 1000 to 5000 nM; under `Cc1c([C@@H](NC(=O)Nc2cnc(N3CC(S(C)(=O)=O)C3)nc2)C(C)C)oc2ccc(F)cc12` [Compound 128, (S)-1-(1-(5-fluoro-3-methylbenzofuran-2-yl)-2-methylpropyl)-3-(2-(3-(methylsulfonyl)azetidin-1-yl)pyrimidin-5-yl)urea], 1000 to 5000 nM.
Consider `Cc1c([C@@H](NC(=O)Nc2cnc(NCC(N)=O)nc2)C(C)C)oc2ccc(F)cc12` [Compound 134, (S)-2-((5-(3-(1-(5-fluoro-3-methylbenzofuran-2-yl)-2-methylpropyl)ureido)pyrimidin-2-yl)amino)acetamide], for which the concentration for half-maximal inhibition (IC50) was < 1000 nM.
With `Cc1c([C@@H](NC(=O)Nc2cnc(N3CC4(COC4)C3)nc2)C(C)C)oc2ccc(F)cc12` [Compound 135], the IC50 was < 1000 nM.
As to `Cc1c([C@@H](NC(=O)Nc2cnc(NC3COC3)nc2)C(C)C)oc2ccc(F)cc12` [Compound 136], the concentration for half-maximal inhibition (IC50) is < 1000 nM.
Same read-out and setting: for `Cc1c([C@@H](NC(=O)Nc2cnc(NCCCO)nc2)C(C)C)oc2ccc(F)cc12` [Compound 137] the value was < 1000 nM.
Turning to `COC1CN(c2ncc(NC(=O)N[C@H](c3oc4ccc(F)cc4c3C)C(C)C)cn2)C1` [Compound 138], the IC50 is < 1000 nM.
In the case of `Cc1c([C@@H](NC(=O)Nc2cnc(N3CCNC(=O)C3)nc2)C(C)C)oc2ccc(F)cc12` [Compound 139], the half-inhibitory concentration (IC50) is < 1000 nM.
Same read-out and setting: for `Cc1c([C@@H](NC(=O)Nc2cnc(N3CCC(O)CC3)nc2)C(C)C)oc2ccc(F)cc12` [Compound 140] the value was < 1000 nM; for `Cc1c([C@@H](NC(=O)Nc2cnc(N3CCC(C)(O)CC3)nc2)C(C)C)oc2ccc(F)cc12` [Compound 141], < 1000 nM; for `Cc1c([C@@H](NC(=O)Nc2cnc(NCC(C)(C)O)nc2)C(C)C)oc2ccc(F)cc12` [Compound 142], < 1000 nM.
Same read-out and setting: under `Cc1c([C@@H](NC(=O)Nc2cnc(NC[C@@H](C)O)nc2)C(C)C)oc2ccc(F)cc12` [Compound 143] stands < 1000 nM.
Regarding `CCC1(O)CN(c2ncc(NC(=O)N[C@H](c3oc4ccc(F)cc4c3C)C(C)C)cn2)C1` [Compound 144], the concentration for half-maximal inhibition (IC50) was < 1000 nM.
In the case of `Cc1c([C@@H](NC(=O)Nc2cnc(N3CCSCC3)nc2)C(C)C)oc2ccc(F)cc12` [Compound 145, 3-[(1S)-1-(5-fluoro-3-methyl-1-benzofuran-2-yl)-2-methylpropyl]-1-[2-(thiomorpholin-4-yl)pyrimidin-5-yl]urea], the half-maximal inhibitory concentration (IC50) is < 1000 nM.
For the molecule `Cc1c([C@@H](NC(=O)Nc2cnc(N3CCS(=O)(=O)CC3)nc2)C(C)C)oc2ccc(F)cc12` [Compound 146, 1-[2-(1,1-dioxo-1lambda6-thiomorpholin-4-yl)pyrimidin-5-yl]-3-[(1S)-1-(5-fluoro-3-methyl-1-benzofuran-2-yl)-2-methylpropyl]urea], the 50% inhibitory concentration (IC50) is < 1000 nM.
Same read-out and setting: for `Cc1c([C@@H](NC(=O)Nc2cnc(N3CCS(=N)(=O)CC3)nc2)C(C)C)oc2ccc(F)cc12` [Compound 147, 3-[(1S)-1-(5-fluoro-3-methyl-1-benzofuran-2-yl)-2-methylpropyl]-1-[2-(1-imino-1-oxo-1lambda6-thiomorpholin-4-yl)pyrimidin-5-yl]urea] the value was < 1000 nM; for `COc1ncc(NC(=O)N[C@H](c2oc3ccc(F)cc3c2C)C(C)C)cn1` [Compound 150, (S)-1-(1-(5-fluoro-3-methylbenzofuran-2-yl)-2-methylpropyl)-3-(2-methoxypyrimidin-5-yl)urea], < 1000 nM; for `Cc1c([C@@H](NC(=O)Nc2cnc(OCCO)nc2)C(C)C)oc2ccc(F)cc12` [Compound 151, (S)-1-(1-(5-fluoro-3-methylbenzofuran-2-yl)-2-methylpropyl)-3-(2-(2-hydroxyethoxy)pyrimidin-5-yl)urea], < 1000 nM.
`Cc1c([C@@H](NC(=O)Nc2cnc(OCC3(O)CC3)nc2)C(C)C)oc2ccc(F)cc12` [Compound 152]: the IC50 was < 1000 nM.
With `Cc1c([C@@H](NC(=O)Nc2cnc3nccn3c2)C(C)C)oc2ccc(F)cc12` [Compound 160, (S)-1-(1-(5-fluoro-3-methylbenzofuran-2-yl)-2-methylpropyl)-3-(imidazo[1,2-a]pyrimidin-6-yl)urea], the IC50 was < 1000 nM.
For `Cc1c([C@@H](NC(=O)Nc2cnc(N3CCNC3=O)nc2)C(C)C)oc2ccc(F)cc12` [Compound 161, 3-[(1S)-1-(5-fluoro-3-methyl-1-benzofuran-2-yl)-2-methylpropyl]-1-[2-(2-oxoimidazolidin-1-yl)pyrimidin-5-yl]urea], the IC50 was < 1000 nM.
Take `COC(=O)Nc1ncc(NC(=O)N[C@H](c2oc3ccc(F)cc3c2C)C(C)C)cn1` [Compound 162, methyl N-[5-({[(1S)-1-(5-fluoro-3-methyl-1-benzofuran-2-yl)-2-methylpropyl]carbamoyl}amino)pyrimidin-2-yl]carbamate]: the IC50 was < 1000 nM.
In the case of `CNC(=O)C1CN(c2ncc(NC(=O)N[C@H](c3oc4ccc(F)cc4c3C)C(C)C)cn2)C1` [Compound 163, 1-[5-({[(1S)-1-(5-fluoro-3-methyl-1-benzofuran-2-yl)-2-methylpropyl]carbamoyl}amino)pyrimidin-2-yl]-N-methylazetidine-3-carboxamide], the IC50 was < 1000 nM.
On to `Cc1c([C@@H](NC(=O)Nc2cnc(N3CC4(CCO4)C3)nc2)C(C)C)oc2ccc(F)cc12` [Compound 164, 3-[(1S)-1-(5-fluoro-3-methyl-1-benzofuran-2-yl)-2-methylpropyl]-1-(2-{1-oxa-6-azaspiro[3.3]heptan-6-yl}pyrimidin-5-yl)urea], for which the IC50 is < 1000 nM.
For the molecule `Cc1c([C@@H](NC(=O)Nc2cnc(N3CC4(CCCO4)C3)nc2)C(C)C)oc2ccc(F)cc12` [Compound 165, 3-[(1S)-1-(5-fluoro-3-methyl-1-benzofuran-2-yl)-2-methylpropyl]-1-(2-{5-oxa-2-azaspiro[3.4]octan-2-yl}pyrimidin-5-yl)urea], the IC50 is < 1000 nM.
Take `Cc1c([C@@H](NC(=O)Nc2cnc(N3CC4(CNC(=O)CO4)C3)nc2)C(C)C)oc2ccc(F)cc12` [Compound 166, 3-[(1S)-1-(5-fluoro-3-methyl-1-benzofuran-2-yl)-2-methylpropyl]-1-(2-{7-oxo-5-oxa-2,8-diazaspiro[3.5]nonan-2-yl}pyrimidin-5-yl)urea]: the IC50 is < 1000 nM.
Take `Cc1c([C@@H](NC(=O)Nc2cnc(N3CC(OC(F)F)C3)nc2)C(C)C)oc2ccc(F)cc12` [Compound 167, 1-{2-[3-(difluoromethoxy)azetidin-1-yl]pyrimidin-5-yl}-3-[(1S)-1-(5-fluoro-3-methyl-1-benzofuran-2-yl)-2-methylpropyl]urea]: the IC50 is < 1000 nM.
Same read-out and setting: for `Cc1c([C@@H](NC(=O)Nc2cnc(N3CC4(COC4)C3)nc2)C(F)(F)F)oc2ccc(F)cc12` [Compound 168, (R)-1-(2-(2-oxa-6-azaspiro[3.3]heptan-6-yl)pyrimidin-5-yl)-3-(2,2,2-trifluoro-1-(5-fluoro-3-methylbenzofuran-2-yl)ethyl)urea] the value was < 1000 nM; for `Cc1c([C@@H](NC(=O)Nc2cnc(N3C[C@H](O)[C@H]3C)nc2)C(F)(F)F)oc2ccc(F)cc12` [Compound 169], < 1000 nM; for `Cc1c([C@@H](NC(=O)Nc2cnc(N3C[C@@H](O)[C@@H]3C)nc2)C(F)(F)F)oc2ccc(F)cc12` [Compound 170], < 1000 nM.

Still in this assay, the particulars now being: read-out: T47D pAKT IC50; T47D.1 cells, pAKT (S473) HTRF, 1 hour.
As to `C[C@@H]1[C@@H](O)CN1c1ncc(NC(=O)NC(c2cc3cc(F)cc(F)c3o2)C(F)(F)F)cn1` (stereo partly drawn) [Compound 173, 3-[1-(5,7-difluoro-1-benzofuran-2-yl)-2,2,2-trifluoroethyl]-1-{2-[(2R,3S)-3-hydroxy-2-methylazetidin-1-yl]pyrimidin-5-yl}urea], the pIC50 is < 5.30.
On to `C[C@@H]1[C@@H](O)CN1c1ncc(NC(=O)NC(c2cc3cc(F)cc(F)c3o2)C(F)(F)F)cn1` (stereo partly drawn) [Compound 174, 3-[1-(5,7-difluoro-1-benzofuran-2-yl)-2,2,2-trifluoroethyl]-1-{2-[(2R,3S)-3-hydroxy-2-methylazetidin-1-yl]pyrimidin-5-yl}urea], for which the pIC50 was > 6.00.
